Laboratory results reported in US8299262B2, “Pyridylmethyl-sulfonamide compounds” (BASF SE, priority 2007, dated 2012).
Read-outs that look alike come from different tables or passages of the source.

Legend:
[1] = tested on: Gaeumannomyces graminis; experiment: Synergistic mixtures, microtiter test, Gaeumannomyces graminis (Use Example 30); type: cell-based; settings: single compound
[2] = tested on: Phytophthora infestans; type: cell-based; settings: single compound
[3] = tested on: Pyricularia oryzae; type: cell-based; settings: single compound
[4] = tested on: Puccinia recondita; experiment: Synergistic mixtures, greenhouse, preventative control of brown rust on wheat caused by Puccinia recondita (Use Example 34); type: in vivo; settings: single compound, untreated control 90% disease
Protocol: These percentages were converted into efficacies. An efficacy of 0 means that the growth level of the pathogens corresponds to that of the untreated control; an efficacy of 100 means that the pathogens were not growing.
The expected efficacies of active compound mixtures were determined using Colby's formula [R. S. Colby, Calculating synergistic and antagonistic responses of herbicide combinations, Weeds 15, 20-22 (1967)] and compared with the observed efficacies. E=x+y−x·y/100 Colby's formula • E expected efficacy, expressed in % of the untreated control, when using the mixture of the compounds A and B at the concentration a and b • x efficacy, expressed in % of the untreated control, when using compound A at a concentration of a • y efficacy, expressed in % of the untreated control, when using compound B at a concentration of b A) Microtiter Tests
The spray solutions were prepared in several steps:
The stock solution were prepared as follows: a mixture of acetone and/or dimethylsulfoxide and the wetting agent/emulsifier Wettol, which is based on ethoxylated alkylphenoles, in a relation (volume) solvent-emulsifier of 99 to 1 was added to 25 mg of the compound to give a total of 10 ml. Water was then added to total volume of 100 ml.
This stock solution was diluted with the described solvent-emulsifier-water mixture to the given concentration. The compounds pyraclostrobin, boscalid and epoxiconazole were used as commercial finished formulations and diluted with water to the stated concentration of the active compound.
The first two developed leaves of pot-grown wheat seedling were sprayed to run-off with an aqueous suspension, containing the concentration of active ingredient or their mixture as described below. The next day the plants were inoculated with spores of Puccinia recondita. To ensure the success the artificial inoculation, the plants were transferred to a humid chamber without light and a relative humidity of 95 to 99% and at temperatures between 20 and 24° C. for 24 h. Then, the plants were cultivated for 6 days in a greenhouse chamber at 20 to 24° C. and a relative humidity between 65 and 70%. The extent of fungal attack on the leaves was visually assessed as % diseased leaf area.

[5] = tested on: Thielaviopsis basicola; experiment: Synergistic mixtures, microtiter test, Thielaviopsis basicola (Use Example 31); type: cell-based; settings: single compound
[6] = tested on: Fusarium culmorum; experiment: Synergistic mixtures, microtiter test, Fusarium culmorum (Use Example 27); type: cell-based; settings: single compound
[7] = tested on: Alternaria solani; experiment: Synergistic mixtures, microtiter test, early blight pathogen Alternaria solani (Use Example 24); type: cell-based; settings: single compound
[8] = tested on: Septoria tritici; experiment: Synergistic mixtures, microtiter test, leaf blotch pathogen Septoria tritici (Use Example 26); type: cell-based; settings: single compound
[9] = tested on: Pyrenophora teres; experiment: Synergistic mixtures, microtiter test, net blotch pathogen Pyrenophora teres (Use Example 29); type: cell-based; settings: single compound
[10] = tested on: Colletotrichum truncatum; experiment: Synergistic mixtures, microtiter test, Colletotrichum truncatum (Use Example 28); type: cell-based; settings: single compound
[11] = tested on: Pyricularia oryzae; type: cell-based; settings: control =100%, day 7
[12] = tested on: Verticillium dahliae; settings: single compound

SMILES | Observed efficacy (%) ([3]; 0.063 ppm) | Observed efficacy (%) ([4]; 1 ppm) | Observed efficacy (%) ([5]; 1 ppm) | Observed efficacy (%) ([6]; 16 ppm) | Observed efficacy (%) ([7]; 0.063 ppm) | Observed efficacy (%) ([4]; 16 ppm) | Observed efficacy (%) ([8]; 4 ppm) | Observed efficacy (%) ([9]; 0.25 ppm) | Observed efficacy (%) ([1]; 0.063 ppm) | Observed efficacy (%) ([10]; 4 ppm) | Observed efficacy (%) ([4]; 4 ppm) | also measured
Fc1ccc([C@]2(Cn3cncn3)O[C@H]2c2ccccc2Cl)cc1 [Epoxiconazol, reference compound] | 0 | 33 | – | – | – | – | – | – | – | – | – | Observed efficacy (%) ([1]; 0.004 ppm): 2%; Observed efficacy (%) ([2]; 0.001 ppm): 0%; Observed efficacy (%) ([4]; 0.063 ppm): 0%; Observed efficacy (%) ([4]; 0.25 ppm): 0%
COc1cc(CNS(=O)(=O)c2ccc(Oc3ccc(Cl)cn3)cc2)ccn1 [Example 74] | – | – | 32 | 1 | 0 | 44 | 58 | 33 | – | – | – | Observed efficacy (%) ([10]; 16 ppm): 35%
COc1cc(CNS(=O)(=O)c2ccc(Oc3ccccc3)cc2)ccn1 [comparative example 1, reference compound] | – | – | – | – | – | – | – | – | – | – | – | growth in [%] at 31 ppm [11]: 97%
Cc1nccc(CNS(=O)(=O)c2ccc(Oc3ncccc3C(F)(F)F)cc2)c1C [Example 28] | 27 | 0 | – | 1 | – | – | 29 | 4 | 29 | 20 | – | Observed efficacy (%) ([2]; 0.016 ppm): 10%; Observed efficacy (%) ([5]; 16 ppm): 23%; Observed efficacy (%) ([3]; 0.25 ppm): 52%
O=S(=O)(NCc1ccncc1)c1ccc(Oc2ccc(C(F)(F)F)cn2)cc1 [Example 9] | – | – | 11 | 0 | – | 0 | 2 | – | – | – | – | Observed efficacy (%) ([1]; 0.25 ppm): 5%
COc1cc(CNS(=O)(=O)c2ccc(Oc3ccccn3)cc2)ccn1 [Example 7] | 1 | – | – | 7 | – | – | – | 17 | 9 | 20 | – | Observed efficacy (%) ([1]; 0.25 ppm): 51%; Observed efficacy (%) ([2]; 0.016 ppm): 11%; growth in [%] at 31 ppm [11]: 53%; Observed efficacy (%) ([7]; 0.016 ppm): 11%; Observed efficacy (%) ([9]; 1 ppm): 28%
COc1cnccc1CNS(=O)(=O)c1ccc(Oc2nccc(C(F)(F)F)n2)cc1 [Example 64] | – | – | – | 0 | 0 | 0 | – | 5 | – | – | 0 | Observed efficacy (%) ([5]; 16 ppm): 20%; Observed efficacy (%) ([3]; 1 ppm): 12%
COc1cc(CNS(=O)(=O)c2ccc(Oc3ncc(C(F)(F)F)cc3C)cc2)ccn1 [Example 160] | – | 0 | 14 | 3 | – | – | 55 | 11 | – | 37 | 0 | Observed efficacy (%) ([2]; 1 ppm): 17%; Observed efficacy (%) ([3]; 0.25 ppm): 60%
Cc1nccc(CNS(=O)(=O)c2ccc(Oc3ccc(Br)cn3)cc2)c1C [Example 71] | – | – | 9 | 1 | 4 | 0 | 43 | 20 | 52 | 29 | – | Observed efficacy (%) ([12]; 4 ppm): 55%; Observed efficacy (%) ([5]; 16 ppm): 56%
COc1cc(CNS(=O)(=O)c2ccc(Oc3ccc(C(F)(F)F)cn3)cc2)ccn1 [Example 12] | 45 | 22 | – | 3 | 6 | – | 47 | – | – | – | – | Observed efficacy (%) ([1]; 0.016 ppm): 30%; Observed efficacy (%) ([4]; 0.25 ppm): 0%; Observed efficacy (%) ([9]; 0.063 ppm): 25%; Observed efficacy (%) ([10]; 16 ppm): 50%
O=C1C2CC=CCC2C(=O)N1SC(Cl)(Cl)Cl (centres unmarked) [Captan, reference compound] | 0 | – | – | – | – | – | – | – | 42 | – | – | Observed efficacy (%) ([1]; 0.016 ppm): 12%; Observed efficacy (%) ([2]; 0.004 ppm): 0%; Observed efficacy (%) ([2]; 0.063 ppm): 7%; Observed efficacy (%) ([2]; 0.25 ppm): 3%; Observed efficacy (%) ([12]; 0.25 ppm): 26%; Observed efficacy (%) ([5]; 0.25 ppm): 40%; Observed efficacy (%) ([6]; 4 ppm): 39%; Observed efficacy (%) ([8]; 1 ppm): 31%; Observed efficacy (%) ([9]; 0.016 ppm): 5%; Observed efficacy (%) ([9]; 0.063 ppm): 16%
COc1cc(CNS(=O)(=O)c2ccc(Oc3ncccc3C(F)(F)F)cc2)ccn1 [Example 13] | – | – | – | 2 | – | – | 39 | – | 31 | 26 | – | Observed efficacy (%) ([1]; 0.016 ppm): 6%; Observed efficacy (%) ([2]; 0.25 ppm): 16%; Observed efficacy (%) ([9]; 0.063 ppm): 19%
Cc1cc(Oc2ccc(C(F)(F)F)cn2)ccc1S(=O)(=O)NCc1ccnc(C)c1C [Example 203] | – | – | 0 | 1 | 0 | 44 | 45 | 34 | – | 36 | 22 | Observed efficacy (%) ([12]; 1 ppm): 52%; Observed efficacy (%) ([12]; 4 ppm): 56%; Observed efficacy (%) ([5]; 4 ppm): 13%
O=C(Nc1ccccc1-c1ccc(Cl)cc1)c1cccnc1Cl [Boscalid, reference compound] | – | 0 | – | 1 | 23 | 0 | – | 49 | – | – | 0 | Observed efficacy (%) ([2]; 0.016 ppm): 5%; Observed efficacy (%) ([4]; 0.25 ppm): 0%
N#Cc1c(Cl)c(Cl)c(Cl)c(C#N)c1Cl [Chlorothalonil, reference compound] | 0 | – | 56 | – | – | – | – | – | – | – | – | Observed efficacy (%) ([1]; 0.004 ppm): 0%; Observed efficacy (%) ([1]; 0.016 ppm): 9%; Observed efficacy (%) ([2]; 0.004 ppm): 4%; Observed efficacy (%) ([2]; 0.25 ppm): 10%; Observed efficacy (%) ([12]; 1 ppm): 40%; Observed efficacy (%) ([6]; 4 ppm): 5%
COc1cc(CNS(=O)(=O)c2ccc(Oc3cccc(C)n3)cc2)ccn1 [Example 45] | 30 | – | – | 2 | 1 | 0 | 50 | – | – | 25 | 0 | Observed efficacy (%) ([9]; 1 ppm): 25%
